Test results as given in PubChem BioAssay AID2060495 (Molecular Pharmacology Branch, DTP, NCI, 2025).

Test system: 521955-158-R2-J5-PDC complex spheroid viability
Test: Anticancer human tumor 521955-158-R2-J5-PDC patient-derived pancreatic carcinoma cell line growth inhibition [GQUAD]
Conditions: for IC50: curve of first compound; for viability, T/C: stronger effect = lower value
Excerpt: DNA G-quadruplex Stabilizer Agents in Combinations in Complex Spheroids
A high-throughput screen of multi-cell type tumor spheroids was designed to identify active combinations of DNA G-quadruplex stabilizer agents and targeted small molecules. Complex spheroids include a stromal component modeled by human endothelial cells (HUVEC) and fibroblasts modeled by human mesenchymal stem cells (MSCs). The concentration ranges selected for each drug and investigational agent were based upon clinically achievable concentrations if the clinical Cmax of the agent was known.
Compounds. The drugs and investigational agents: pidnarulex (CX-5461; NSC782164), APTO-253 (NSC789042), BRACO-19 (NSC847499), peposertib (NSC802822), ceralasertib (NSC780249), elimusertib (NSC800525), camonsertib (NSC841442), AZD-1390 (NSC803789), olaparib (NSC753686), talazoparib (NSC767125), ART-558 (NSC835418), sotorasib (NSC818433), MRTX-1133 (NSC836407), SN-38 (NSC673596), topotecan (NSC609699), etoposide (NSC141540), doxorubicin (NSC123127), gemcitabine (NSC613327), 5-fluorouracil (NSC19893), paclitaxel (NSC125973), vemurafenib (NSC761431), panobinostat (NSC761190), R-306465 (JNJ-16241199; NSC773264), adavosertib (NSC754352), TP-3654 (NSC805149), carboplatin (NSC241240), KSQ-4279 (NSC840948), and staurosporine (NSC755774) were obtained from the National Cancer Institute (NCI) Developmental Therapeutics Program Chemical Repository (34). The FDA-approved anticancer drug set is available from the NCI Developmental Therapeutics Program. […] The stock solutions were prepared in dimethyl sulfoxide (DMSO, Sigma-Aldrich, St. Louis, MO, cat. D2650) at 800-fold the tested concentration and stored at -70 degrees C prior to their use. All drugs and investigational agents were tested over a range starting from a high concentration at or near the clinical Cmax and decreasing in half-log increments. If the clinical Cmax for an agent had not been determined, the highest concentration tested was 10 microM.
2.3 Cell Culture. All cells were maintained in an incubator at 37 degrees C and 5% CO2 with 95% humidity. The PDC lines were cultured according to standard operating procedures established by the NCI PDMR. All PDCs were thawed and cultured in Matrigel-coated flasks prepared with a working solution of 1X Ham's F-12 nutrient mix, without supplementation (Invitrogen, cat. 11765054), 100 U/mL penicillin-streptomycin (Invitrogen, cat. 15140122), and 2.5% Matrigel (Corning Inc., cat. 354248) for the first three passages. The 857933-349-R-J2-PDC line was cultured in 6C/Colon 1B media, which includes advanced DMEM/F-12 (Thermo Fisher Scientific, cat. 12634028), 10 mM HEPES (Thermo Fisher Scientific, cat. 15630080), 1X GlutaMAX supplement (Thermo Fisher Scientific, cat. 35050061), 0.1 mg/mL primocin (InvivoGen, cat. ant-pm-2), 10% defined fetal bovine serum, heat inactivated (HyClone Laboratories Inc., cat. SH30070.03HI), 50% L-WRN conditioned media (ATCC, cat. CRL-3276), 1.25 mM N-Acetyl-L-cysteine (Sigma-Aldrich, cat. A9165), 10 mM nicotinamide (Sigma-Aldrich, cat. N0636), 1X B-27 supplement (Thermo Fisher Scientific, cat. 17504044), 1X N-2 supplement (Thermo Fisher Scientific, cat. 17502048), 10 microM Y-27632 dihydrochloride (Tocris Bioscience, cat. 1254), and 50 ng/mL human EGF recombinant protein (Thermo Fisher Scientific, cat. PHG0311). The 485176-168-R4-J1-PDC line was cultured in Panc media, which includes all 6C/Colon 1B media components plus 100 ng/mL human FGF-10 (Thermo Fisher Scientific, cat. 100-26), 500 nM SB-431542 (Selleckchem, cat. S1067), and gastrin (Tocris, cat. 3006).
[…]

[1] = second compound 0.0316 µM, first compound 0.0316 µM
[2] = second compound 0.0316 µM, first compound 0.316 µM
[3] = second compound 0.1 µM, first compound 0.0316 µM
[4] = second compound 0.1 µM, first compound 0.316 µM
[5] = second compound 0.316 µM, first compound 0.0316 µM
[6] = second compound 0.316 µM, first compound 0.316 µM
[7] = second compound 1 µM, first compound 0.0316 µM
[8] = second compound 1 µM, first compound 0.316 µM
[9] = second compound 3.16 µM, first compound 0.0316 µM
[10] = second compound 3.16 µM, first compound 0.316 µM
[11] = second compound 10 µM, first compound 0.0316 µM
[12] = second compound 10 µM, first compound 0.316 µM
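Also: spheroids exposed to agents for one week before reading.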
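For viability, T/C in this document: 100% = DMSO vehicle control viability.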

In the case of `CC(C)n1c(=O)n(C)c2cnc3cc(F)c(-c4ccc(OCCCN5CCCCC5)nc4)cc3c21` + CN(C)c1ccc(Nc2c3ccc(NC(=O)CCN4CCCC4)cc3nc3cc(NC(=O)CCN4CCCC4)ccc23)cc1, the IC50 (second compound 0.0316 µM) is reported as > 10000 nM, the IC50 (second compound 0.1 µM) is reported as > 10000 nM and the IC50 (second compound 0.316 µM) is reported as > 10000 nM. The IC50 (second compound 1 µM) was > 10000 nM, the IC50 (second compound 3.16 µM) was 8350 nM and the IC50 (second compound 10 µM) was 288 nM. For the same molecule, the viability, T/C [1] was 117%, the viability, T/C (second compound 0.0316 µM, first compound 0.1 µM) was 108% and the viability, T/C [2] was 110%. The viability, T/C (second compound 0.0316 µM, first compound 1 µM) was 93.5%, the viability, T/C (second compound 0.0316 µM, first compound 3.16 µM) was 115% and the viability, T/C (second compound 0.0316 µM, first compound 10 µM) was 109%. It also gave a viability, T/C [3] of 98.6%, a viability, T/C (second compound 0.1 µM, first compound 0.1 µM) of 105% and a viability, T/C [4] of 101%. For the same molecule, the viability, T/C (second compound 0.1 µM, first compound 1 µM) was 95.3%, the viability, T/C (second compound 0.1 µM, first compound 3.16 µM) was 116% and the viability, T/C (second compound 0.1 µM, first compound 10 µM) was 106%. For the same molecule, the viability, T/C [5] was 101%, the viability, T/C (second compound 0.316 µM, first compound 0.1 µM) was 103% and the viability, T/C [6] was 91%. It also gave a viability, T/C (second compound 0.316 µM, first compound 1 µM) of 107%, a viability, T/C (second compound 0.316 µM, first compound 3.16 µM) of 115% and a viability, T/C (second compound 0.316 µM, first compound 10 µM) of 85.2%. For the same molecule, the viability, T/C [7] was 112%, the viability, T/C (second compound 1 µM, first compound 0.1 µM) was 90.2% and the viability, T/C [8] was 77%. For the same molecule, the viability, T/C (second compound 1 µM, first compound 1 µM) was 96.8%, the viability, T/C (second compound 1 µM, first compound 3.16 µM) was 97.5% and the viability, T/C (second compound 1 µM, first compound 10 µM) was 86%. For the same molecule, the viability, T/C [9] was 101%, the viability, T/C (second compound 3.16 µM, first compound 0.1 µM) was 81% and the viability, T/C [10] was 63.6%. The viability, T/C (second compound 3.16 µM, first compound 1 µM) was 63.7%, the viability, T/C (second compound 3.16 µM, first compound 3.16 µM) was 55.1% and the viability, T/C (second compound 3.16 µM, first compound 10 µM) was 46.7%. It also gave a viability, T/C [11] of 64%, a viability, T/C (second compound 10 µM, first compound 0.1 µM) of 57% and a viability, T/C [12] of 51.2%. It also gave a viability, T/C (second compound 10 µM, first compound 1 µM) of 34.8%, a viability, T/C (second compound 10 µM, first compound 3.16 µM) of 22% and a viability, T/C (second compound 10 µM, first compound 10 µM) of 5.89%.

`CCc1c2c(nc3ccc(O)cc13)-c1cc3c(c(=O)n1C2)COC(=O)[C@]3(O)CC` + CN(C)c1ccc(Nc2c3ccc(NC(=O)CCN4CCCC4)cc3nc3cc(NC(=O)CCN4CCCC4)ccc23)cc1 was tested, and the IC50 (second compound 0.0316 µM) was 3.29 nM, the IC50 (second compound 0.1 µM) was 3.03 nM and the IC50 (second compound 0.316 µM) was 2.54 nM. The IC50 (second compound 1 µM) was 2.41 nM, the IC50 (second compound 3.16 µM) was 2.28 nM and the IC50 (second compound 10 µM) was 1.54 nM. For the same molecule, the viability, T/C (second compound 0.0316 µM, first compound 0.000999 µM) was 74.6%, the viability, T/C (second compound 0.0316 µM, first compound 0.00316 µM) was 49.6% and the viability, T/C (second compound 0.0316 µM, first compound 0.00999 µM) was 32.4%. For the same molecule, the viability, T/C [1] was 15.1%, the viability, T/C (second compound 0.0316 µM, first compound 0.0999 µM) was 11.6% and the viability, T/C [2] was 9.29%. The viability, T/C (second compound 0.1 µM, first compound 0.000999 µM) was 80.2%, the viability, T/C (second compound 0.1 µM, first compound 0.00316 µM) was 46.8% and the viability, T/C (second compound 0.1 µM, first compound 0.00999 µM) was 31.7%. The viability, T/C [3] was 18%, the viability, T/C (second compound 0.1 µM, first compound 0.0999 µM) was 9.85% and the viability, T/C [4] was 7.27%. The viability, T/C (second compound 0.316 µM, first compound 0.000999 µM) was 84.6%, the viability, T/C (second compound 0.316 µM, first compound 0.00316 µM) was 39.3% and the viability, T/C (second compound 0.316 µM, first compound 0.00999 µM) was 25.3%. The viability, T/C [5] was 12.8%, the viability, T/C (second compound 0.316 µM, first compound 0.0999 µM) was 11.6% and the viability, T/C [6] was 4.59%. For the same molecule, the viability, T/C (second compound 1 µM, first compound 0.000999 µM) was 89.1%, the viability, T/C (second compound 1 µM, first compound 0.00316 µM) was 33.5% and the viability, T/C (second compound 1 µM, first compound 0.00999 µM) was 25.4%. For the same molecule, the viability, T/C [7] was 15.4%, the viability, T/C (second compound 1 µM, first compound 0.0999 µM) was 9.81% and the viability, T/C [8] was 6.13%. It also gave a viability, T/C (second compound 3.16 µM, first compound 0.000999 µM) of 75.5%, a viability, T/C (second compound 3.16 µM, first compound 0.00316 µM) of 33.7% and a viability, T/C (second compound 3.16 µM, first compound 0.00999 µM) of 30.4%. For the same molecule, the viability, T/C [9] was 17.9%, the viability, T/C (second compound 3.16 µM, first compound 0.0999 µM) was 7.36% and the viability, T/C [10] was 8.33%. The viability, T/C (second compound 10 µM, first compound 0.000999 µM) was 56.9%, the viability, T/C (second compound 10 µM, first compound 0.00316 µM) was 37.8% and the viability, T/C (second compound 10 µM, first compound 0.00999 µM) was 25%. For the same molecule, the viability, T/C [11] was 11.8%, the viability, T/C (second compound 10 µM, first compound 0.0999 µM) was 5.13% and the viability, T/C [12] was 6.11%.
